Laboratory results reported in ChEMBL document CHEMBL3885861, “Open TG-GATES”.

Species on record: Rattus norvegicus
Test: Open TG-GATES - Regimen: Daily Repeat
Assay type: toxicity, organism-based, Sprague-Dawley
Set-up: regimen Daily Repeat, gender Male, age 6 weeks
Conditions: in vivo, po, 30 mg/kg, route gavage, dose level Low; for APTT / Bas / Eos / Fbg / Hb / Ht / Lym / MCH / MCHC / MCV / Mono / Neu / PT / Plat / RBC / Ret / WBC: tissue Blood; for KIDNEY_L / KIDNEY_R / KIDNEY_TOTAL: tissue Kidney; for LIVER: tissue Liver; for A/G / ALP / ALT / AST / BUN / CRE / Ca / Cl / DBIL / GLC / IP / K / LDH / Na / PL / RALB / TBIL / TC / TG / TP / gamma-GTP: tissue Plasma

## CC(=O)Nc1ccc2c(c1)Cc1ccccc1-2 [2-ACETYLAMINOFLUORENE]
72 h, time 3 day
  TERMINAL_BW: 222.5 g
  APTT: 18.9 s
  Bas: 0.6%
  Eos: 1%
  Fbg: 226.6 mg/dL
  Hb: 14.8 g/dL
  Ht: 42.2%
  Lym: 81%
  MCH: 22.3 pg
  MCHC: 35%
  MCV: 63.7 fL
  Mono: 2.8%
  Neu: 14%
  PT: 12.3 s
  Plat: 131.4 x10_4/uL
  RBC: 663 x10_4/ul
  Ret: 4.1%
  WBC: 118 x10_2/uL
  KIDNEY_L: 1 g
  KIDNEY_R: 1 g
  KIDNEY_TOTAL: 2 g
  LIVER: 10.6 g
  A/G: 1.5
  ALP: 746.6 IU/L
  ALT: 26.6 IU/L
  AST: 69.2 IU/L
  BUN: 12.4 mg/dL
  CRE: 0.4 mg/dL
  Ca: 10.3 mg/dL
  Cl: 102.8 meq/L
  DBIL: 0.086 mg/dL
  GLC: 196.4 mg/dL
  IP: 7.2 mg/dL
  K: 4.1 meq/L
  LDH: 241 IU/L
  Na: 140.2 meq/L
  PL: 100.8 mg/dL
  RALB: 2.9 g/dL
  TBIL: 0.1 mg/dL
  TC: 50.2 mg/dL
  TG: 77 mg/dL
  TP: 5 g/dL
  gamma-GTP: 1.2 IU/L
[…], time 7 day
  TERMINAL_BW: 239.2 g
  APTT: 18.4 s
  Bas: 0.8%
  Eos: 1%
  Fbg: 204 mg/dL
  Hb: 15.4 g/dL
  Ht: 42.8%
  Lym: 82%
  MCH: 22.2 pg
  MCHC: 35.9%
  MCV: 61.9 fL
  Mono: 3%
  Neu: 12.6%
  PT: 13 s
  Plat: 159.6 x10_4/uL
  RBC: 692.2 x10_4/ul
  Ret: 1.8%
  WBC: 125.9 x10_2/uL
  KIDNEY_L: 1 g
  KIDNEY_R: 1 g
  KIDNEY_TOTAL: 2 g
  LIVER: 10.5 g
  A/G: 1.4
  ALP: 1055.8 IU/L
  ALT: 35 IU/L
  AST: 88 IU/L
  BUN: 13.8 mg/dL
  CRE: 0.5 mg/dL
  Ca: 10.2 mg/dL
  Cl: 105.2 meq/L
  DBIL: 0.096 mg/dL
  GLC: 182.2 mg/dL
  IP: 6.4 mg/dL
  K: 3.9 meq/L
  LDH: 271 IU/L
  Na: 140.2 meq/L
  PL: 110.6 mg/dL
  RALB: 2.6 g/dL
  TBIL: 0.2 mg/dL
  TC: 44.4 mg/dL
  TG: 115 mg/dL
  TP: 4.4 g/dL
  gamma-GTP: 1.6 IU/L
[…], time 14 day
  TERMINAL_BW: 259.1 g
  APTT: 19.1 s
  Bas: 1%
  Eos: 0%
  Fbg: 102.2 mg/dL
  Hb: 14.7 g/dL
  Ht: 42%
  Lym: 79.8%
  MCH: 19.7 pg
  MCHC: 35%
  MCV: 56.3 fL
  Mono: 3.2%
  Neu: 15.6%
  PT: 14.9 s
  Plat: 144.2 x10_4/uL
  RBC: 747.2 x10_4/ul
  Ret: 1.8%
  WBC: 145.6 x10_2/uL
  KIDNEY_L: 1.1 g
  KIDNEY_R: 1.1 g
  KIDNEY_TOTAL: 2.2 g
  LIVER: 9.9 g
  A/G: 1.3
  ALP: 1040.6 IU/L
  ALT: 42 IU/L
  AST: 98.6 IU/L
  BUN: 13 mg/dL
  CRE: 0.5 mg/dL
  Ca: 9.4 mg/dL
  Cl: 104.6 meq/L
  DBIL: 0.5 mg/dL
  GLC: 171 mg/dL
  IP: 7.1 mg/dL
  K: 3.9 meq/L
  LDH: 211.2 IU/L
  Na: 141.2 meq/L
  PL: 102.4 mg/dL
  RALB: 2.2 g/dL
  TBIL: 0.7 mg/dL
  TC: 40.8 mg/dL
  TG: 43.8 mg/dL
  TP: 3.8 g/dL
  gamma-GTP: 1.4 IU/L
[…], time 28 day
  TERMINAL_BW: 315.1 g
  APTT: 25.4 s
  Bas: 0.8%
  Eos: 0.6%
  Fbg: 78.2 mg/dL
  Hb: 14 g/dL
  Ht: 40.8%
  Lym: 67.6%
  MCH: 19 pg
  MCHC: 34.3%
  MCV: 55.4 fL
  Mono: 4.2%
  Neu: 26.4%
  PT: 19.2 s
  Plat: 102.7 x10_4/uL
  RBC: 735.6 x10_4/ul
  Ret: 5.3%
  WBC: 274.6 x10_2/uL
  KIDNEY_L: 1.3 g
  KIDNEY_R: 1.3 g
  KIDNEY_TOTAL: 2.6 g
  LIVER: 10.2 g
  A/G: 1
  ALP: 883 IU/L
  ALT: 57.8 IU/L
  AST: 155.4 IU/L
  BUN: 17.2 mg/dL
  CRE: 0.4 mg/dL
  Ca: 8.5 mg/dL
  Cl: 103.6 meq/L
  DBIL: 3 mg/dL
  GLC: 130.6 mg/dL
  IP: 6.8 mg/dL
  K: 4.2 meq/L
  LDH: 252.2 IU/L
  Na: 140.2 meq/L
  PL: 120.2 mg/dL
  RALB: 1.7 g/dL
  TBIL: 3.8 mg/dL
  TC: 60.2 mg/dL
  TG: 30.2 mg/dL
  TP: 3.4 g/dL
  gamma-GTP: 25.4 IU/L
